From patent US12258540B2, “Environmentally compatible detergents for inactivation of lipid-enveloped viruses” (TAKEDA PHARMACEUTICAL COMPANY LIMITED, priority 2017, dated 2025)

Key:
[1] = tested on: aquatic organisms; conditions: Triton X-100 and its break-down products; recent ecological studies; cited from earlier work
[2] = tested on: pseudorabies virus (PRV); type: cell-based; conditions: S/D treatment 0.04%-0.06% detergent, IVIG-containing liquid, 17° C.±1° C., FIG. 9A

Substance: 4-(1,1,3,3-tetramethylbutyl)phenol, ethoxylated [Triton X-100]
- endocrine disrupter behaviour in aquatic organisms [1]: can potentially behave as endocrine disrupters in aquatic organisms

Substance: 4-tert-octylbenzyl alcohol polyethoxylate
- inactivation kinetics compared to Triton X-100, PRV [2]: identical inactivation kinetics
